Where a name gives a salt, the structure may show the parent alone.
Assay: pH dependence of esmolol degradation in solution
Format: physicochemical
Description: While lower concentration (e.g., 10 mg/ml) ready-to-use compositions of esmolol require an additional buffer to maintain pH, higher concentrations of esmolol in the present invention compositions, provide self-buffering capacity to the composition. […] The concentrate can include a pharmaceutically acceptable buffer to aid in maintaining the pH in a range of from about 3.5 to about 7.0. Preferably, the pH is maintained between about 4.5 and about 5.5, more preferably between 4.9 and 5.1.

In the case of COC(=O)CCc1ccc(OCC(O)CNC(C)C)cc1 (stereo not shown) [esmolol, methyl-3-[4-(2-hydroxy-3-isopropylamino)propoxy]phenylpropionate hydrochloride], the “pH at which esmolol is most stable” value is reported as “about 5.0”.
